{
  "source": "patent US20070270521A1",
  "about": "“Transition metal compound, polymerization-initiator system comprising the same, and process for producing polymer” (Sumitomo Chemical Company, Limited, priority 2006, published 2007)",
  "type_in_all_cases": "physicochemical",
  "key": {"[1]": {"experiment": "Saturated solubility of the transition metal compound in a solvent at 23° C.", "conditions": "amount dissolved in 10 mL of saturated solution (Note-1)"}, "[2]": {"experiment": "Polymer dipped in heptane (transfer of the transition metal compound to heptane)", "conditions": "poly(butyl acrylate) made at 60° C. in toluene, containing the transition metal compound", "source_text": "Its molecular weight distribution (Mw/Mn) of 3.2 was a single peak distribution. When dipping said polymer in heptane, the transition metal compound contained in said polymer was transferred to heptane, and said polymer was decolorized from red to very pale yellow.\nIts molecular weight distribution (Mw/Mn) of 3.9 was a single peak distribution. When dipping said polymer in heptane, the transition metal compound contained in said polymer was hardly transferred to heptane, and said polymer remained red and was not decolorized."}, "[3]": {"experiment": "Color change of the reaction mixture before and after polymerization (stability during polymerization)", "conditions": "methyl acrylate/ethylene copolymerization in toluene, 150° C., 4 MPa", "protocol": "A 400 mL stainless-steel autoclave was dried sufficiently, and a gas in the autoclave was displaced with a nitrogen gas. There was put in the autoclave, at ordinary temperature and atmospheric pressure, 1.61 g of [dodecyl(tetramethyl)cyclopentadienyl]iron carbonyl dimer (transition metal compound) obtained in Reference Example 2, and then, 18 mL of methyl acrylate manufactured by Tokyo Chemical Industry Co., Ltd. and 18 mL of purified toluene as a polymerization solvent were put therein using a syringe. After heating the mixture up to 150° C., ethylene (olefin) was pressed into the autoclave up to its pressure of 4.0 MPa. Finally, 2.0 mL of a toluene solution of 2-iodobutane (manufactured by Tokyo Chemical Industry Co., Ltd.) having a concentration of 1.0 mol/L was put therein, thereby copolymerizing methyl acrylate and ethylene at 150° C. for 10 minutes. The copolymerization reaction mixture was subjected to distillation under reduced pressure to distil away the remaining monomer (methyl acrylate) and the solvent (toluene). The resultant solid was dried for three hours in a vacuum dryer (80° C.), thereby obtaining 8.7 g of a random copolymer of methyl acrylate and ethylene. Both the original mixture before copolymerization and the copolymerization reaction mixture were red. […]"}},
  "data": [
    {"compound": "(cyclopentadienyl)iron carbonyl dimer", "values": [
      {"measurement": "Saturated solubility", "setting": "[1]; hexane", "result": 2.4, "unit": "mmol"},
      {"measurement": "Saturated solubility", "setting": "[1]; toluene", "result": 167.3, "unit": "mmol"}
    ]},
    {"compound": "[octyl(tetramethyl)cyclopentadienyl]iron carbonyl dimer", "values": [
      {"measurement": "Saturated solubility", "setting": "[1]; hexane", "result": 96.8, "unit": "mmol"}
    ]},
    {"compound": "[dodecyl(tetramethyl)cyclopentadienyl]iron carbonyl dimer", "values": [
      {"measurement": "Saturated solubility", "setting": "[1]; hexane", "result": 131.4, "unit": "mmol"},
      {"measurement": "Polymer dipped in heptane", "setting": "[2]", "result": "decolorized"},
      {"measurement": "Color change of the reaction mixture before and after polymerization", "setting": "[3]", "result": "non-changed"}
    ]},
    {"compound": "Cc1c(C)c(C)[c-](C)c1C.Cc1c(C)c(C)[c-](C)c1C.[C-]#[O+].[C-]#[O+].[C-]#[O+].[C-]#[O+].[Fe+][Fe+]", "note": "[[(pentamethyl)cyclopentadienyl]iron carbonyl dimer]", "values": [
      {"measurement": "Saturated solubility", "setting": "[1]; hexane", "result": 0.8, "unit": "mmol"},
      {"measurement": "Saturated solubility", "setting": "[1]; toluene", "result": 19.3, "unit": "mmol"}
    ]}
  ]
}
